From the supplement of paper PMC10307832

Experiments:
Test in all cases: relative viability (nuclei count vs DMSO), 5 days (fraction); higher = more cells survive
IU1-47 + AZD7762 = compound: CC1=CC(=C(N1C2=CC=C(C=C2)Cl)C)C(=O)CN3CCCCC3 [IU1-47] + NC(=O)Nc1cc(-c2cccc(F)c2)sc1C(=O)N[C@H]1CCCNC1 [AZD7762] (partner 0.2 µM)
Summary of the method: (§1)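 Values are medians from duplicate plates. Each reflects relative viability, defined as the nuclei count of treated wells over that of vehicle wells. Lung cancer cell lines in 1536-well plates were pin-tool dosed one day after seeding with one drug alone or with a fixed anchor-drug dose plus five library-drug doses (not always all listed) in √10 steps, then fixed, stained and imaged at 4× after 5 days.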

IU1-47 + Tozasertib = compound: CC1=CC(=C(N1C2=CC=C(C=C2)Cl)C)C(=O)CN3CCCCC3 [IU1-47] + Cc1cc(Nc2cc(N3CCN(C)CC3)nc(Sc3ccc(NC(=O)C4CC4)cc3)n2)n[nH]1 [Tozasertib] (partner 0.1 µM)
Summary of the method: as §1

IU1-47 + OSI-027 = compound: CC1=CC(=C(N1C2=CC=C(C=C2)Cl)C)C(=O)CN3CCCCC3 [IU1-47] + COc1cccc2cc(-c3nc([C@H]4CC[C@H](C(=O)O)CC4)n4ncnc(N)c34)[nH]c12 [OSI-027] (partner 0.5 µM)
Summary of the method: as §1

FG-4592 + Alpelisib = compound: Cc1nc(C(=O)NCC(=O)O)c(O)c2ccc(Oc3ccccc3)cc12 [FG-4592] + Cc1nc(NC(=O)N2CCC[C@H]2C(N)=O)sc1-c1ccnc(C(C)(C)C(F)(F)F)c1 [Alpelisib] (partner 2 µM)
Summary of the method: as §1

| Cell Line | relative viability (IU1-47 + AZD7762; first compound 0.08 µM) | relative viability (IU1-47 + AZD7762; first compound 0.253 µM) | relative viability (IU1-47 + AZD7762; first compound 0.8 µM) | relative viability (IU1-47 + AZD7762; first compound 2.53 µM) | relative viability (IU1-47 + AZD7762; first compound 8 µM) | relative viability (IU1-47 + Tozasertib; first compound 0.08 µM) | relative viability (IU1-47 + Tozasertib; first compound 0.253 µM) | relative viability (IU1-47 + Tozasertib; first compound 0.8 µM) | relative viability (IU1-47 + Tozasertib; first compound 2.53 µM) | relative viability (IU1-47 + Tozasertib; first compound 8 µM) | relative viability (IU1-47 + OSI-027; first compound 0.08 µM) | relative viability (IU1-47 + OSI-027; first compound 0.253 µM) | relative viability (IU1-47 + OSI-027; first compound 0.8 µM) | relative viability (IU1-47 + OSI-027; first compound 2.53 µM) | relative viability (IU1-47 + OSI-027; first compound 8 µM) | relative viability (FG-4592 + Alpelisib; first compound 0.08 µM) | relative viability (FG-4592 + Alpelisib; first compound 0.253 µM) | relative viability (FG-4592 + Alpelisib; first compound 0.8 µM) | relative viability (FG-4592 + Alpelisib; first compound 2.53 µM) | relative viability (FG-4592 + Alpelisib; first compound 8 µM) |
| --- | --- | --- | --- | --- | --- | --- | --- | --- | --- | --- | --- | --- | --- | --- | --- | --- | --- | --- | --- | --- |
| NCI-H3122 | 1.08 | 1.08 | 1.02 | 1.02 | 0.88 | 0.442 | 0.423 | 0.371 | 0.46 | 0.331 | 1.07 | 0.961 | 1.05 | 0.987 | 0.954 | 0.861 | 0.764 | 0.665 | 0.781 | 0.733 |
| NCI-H1975 | 0.698 | 0.766 | 0.728 | 0.797 | 0.756 | 0.925 | 0.85 | 0.719 | 0.882 | 0.487 | 0.69 | 0.817 | 0.779 | 0.94 | 0.531 | 0.679 | 0.555 | 0.672 | 0.655 | 0.56 |
| NCI-H1944 | 0.794 | 0.612 | 0.601 | 0.445 | 0.464 | 0.231 | 0.248 | 0.265 | 0.283 | 0.265 | 0.401 | 0.357 | 0.411 | 0.444 | 0.376 | 0.794 | 0.801 | 0.692 | 0.853 | 0.836 |
| LU99A | 0.404 | 0.412 | 0.401 | 0.33 | 0.292 | 0.283 | 0.266 | 0.282 | 0.314 | 0.231 | 0.246 | 0.303 | 0.337 | 0.298 | 0.317 | 0.497 | 0.492 | 0.402 | 0.579 | 0.532 |
| SW 1573 |  |  |  |  |  | 0.17 | 0.167 | 0.176 | 0.184 | 0.143 | 0.675 | 0.618 | 0.583 | 0.216 | 0.607 | 0.781 | 0.733 | 0.852 | 0.857 | 0.616 |
| NCI-H2347 | 0.78 | 0.845 | 0.865 | 0.79 | 0.621 | 0.561 | 0.518 | 0.632 | 0.51 | 0.445 | 0.318 | 0.456 | 0.43 | 0.398 | 0.375 | 0.988 |  | 0.85 | 1.16 | 1.11 |
| NCI-H2009 |  |  |  |  |  | 0.782 | 0.781 | 0.751 | 0.77 | 0.662 | 0.662 | 0.672 | 0.676 | 0.558 | 0.593 | 1.18 | 1.06 | 1.19 | 1.15 | 1.22 |
| HCC-15 | 1.15 | 1.5 | 1.4 |  | 1.23 | 0.385 | 0.432 | 0.354 |  | 0.227 | 0.709 | 0.722 | 0.685 | 0.388 | 0.616 | 0.883 | 0.856 | 0.913 | 0.871 | 0.915 |
| COR-L23 |  |  |  |  |  | 0.184 | 0.183 | 0.206 | 0.207 | 0.18 | 0.831 | 0.977 | 0.845 | 0.901 | 0.563 | 0.751 | 0.653 | 0.918 | 0.768 | 0.783 |
| NCI-H1299 |  |  |  |  |  |  |  |  |  |  |  |  |  |  |  | 1.06 | 0.999 | 1.05 | 1.04 | 1.04 |
| NCI-H1650 |  |  |  |  |  | 0.399 | 0.489 | 0.363 | 0.382 | 0.264 | 0.502 | 0.438 | 0.645 | 0.521 | 0.412 |  |  |  |  |  |
| COR-L 105 |  |  |  |  |  | 0.372 | 0.387 | 0.379 | 0.355 | 0.326 | 0.746 | 0.634 | 0.711 | 0.581 | 0.57 | 1.07 | 0.91 | 0.981 | 0.732 | 1.02 |
| ChaGo-K-1 | 0.934 | 1.01 | 0.91 | 0.91 | 0.954 | 0.203 | 0.216 | 0.263 | 0.215 | 0.228 | 0.485 | 0.535 | 0.589 | 0.41 | 0.489 |  |  |  |  |  |
| NCI-H2228 |  |  |  |  |  | 0.267 | 0.303 | 0.246 | 0.198 | 0.249 | 0.619 | 0.581 | 0.662 | 0.368 | 0.39 | 0.536 | 0.545 | 0.759 | 0.766 | 0.637 |
| NCI-H1648 | 0.61 | 0.727 | 0.821 | 0.732 | 0.508 | 0.518 | 0.569 | 0.476 | 0.338 | 0.43 | 0.264 | 0.295 | 0.251 | 0.266 | 0.277 |  |  |  |  |  |
| NCI-H661 |  |  |  |  |  | 0.354 | 0.373 | 0.355 | 0.358 | 0.375 | 0.81 | 0.753 | 0.63 | 0.799 | 0.647 | 0.386 | 0.581 | 0.626 | 0.835 | 0.727 |
| NCI-H1563 |  |  |  |  |  |  |  |  |  |  | 0.809 | 0.782 | 0.785 | 0.757 | 0.663 | 1.03 | 0.949 | 0.939 | 0.936 | 0.845 |
| A549 |  |  |  |  |  |  |  |  |  |  |  |  |  |  |  | 0.831 | 0.626 | 0.823 | 0.759 | 0.686 |
| NCI-H522 | 0.889 | 0.726 | 0.969 | 0.691 | 1 | 0.52 | 0.523 | 0.516 | 0.489 | 0.519 | 0.751 | 0.592 | 0.56 | 0.572 | 0.619 |  |  |  |  |  |
| NCI-H1623 |  |  |  |  |  | 0.494 | 0.43 | 0.428 | 0.451 | 0.428 | 0.452 | 0.451 | 0.449 | 0.434 | 0.391 |  |  |  |  |  |
| SW 900 | 0.694 |  | 0.695 | 0.611 | 0.683 | 0.512 | 0.54 | 0.615 | 0.439 | 0.469 | 0.508 | 0.45 | 0.677 | 0.61 | 0.414 |  |  |  |  |  |
| IA-LM |  |  |  |  |  |  |  |  |  |  |  |  |  |  |  | 0.827 | 0.707 | 0.878 | 0.54 | 0.433 |
| EBC-1 |  |  |  |  |  |  |  |  |  |  |  |  |  |  |  | 0.895 | 0.816 | 0.736 | 0.693 | 0.814 |
